The text below walks through data of US4458076A, “3-(4-Piperidinyl)-1,2-benzisothiazoles” (Hoechst-Roussel Pharmaceuticals, priority 1983, dated 1984).

Assay [1] concerns phenyl-p-quinone writhing. Description: analgetic activity in the phenyl-p-quinone writhing assay. The conditions noted are these: Mus musculus, sc; subcutaneous dose effecting an approximately 50% inhibition of writhing in mice. The assay is classed as in vivo. The source says: 3-(4-piperidinyl)-1,2-benzisothiazoles of the present invention are useful as analgetics due to their ability to alleviate pain in mammals. […] Exptl. Biol Med., 95 729 (1957)]. Thus, for instance, the subcutaneous dose effecting an approximately 50% inhibition of writhing (ED50) in mice produced in this assay is as shown in Table 2.

Assay [2] deals with apomorphine-induced climbing. Put plainly: antipsychotic activity in the climbing mice assay (apomorphine-induced climbing). The assay is classed as in vivo, CK-1 male mice. The conditions noted are these: Mus musculus, ip, inhibition of climbing, compound intraperitoneally 30 minutes prior to apomorphine 1.5 mg/kg subcutaneously, readings at 10, 20 and 30 minutes, linear regression. On the procedure: The subject CK-1 male mice (23-27 grams) are group-housed under standard laboratory conditions. The mice are individually placed in wire mesh stick cages (4"×4" by 10") and are allowed one hour for adaptation and exploration of the new environment.
For evaluation of climbing, 3 readings are taken at 10, 20 and 30 minutes after apomorphine administration according to the following scale: […]
Mice consistently climbing before the injection of apormorphine will be discarded.
With full-developed apomorphine climbing, the animals are hanging on to the cage walls, rather motionless, over longer periods of time. By contrast, climbs due to mere motor stimulation usually only last a few seconds.

SMILES strings stand for the structures. Read-outs that look alike come from different tables or passages of the source.

In assay [1], `CN1CCC(c2nsc3ccccc23)CC1` [3-(1-Methyl-4-piperidinyl)-1,2-benzisothiazole] came in with an ED50 of 0.73 mg/kg.
Regarding `c1ccc(CCN2CCC(c3nsc4ccccc34)CC2)cc1` [3-{1-[Phenethyl]-4-piperidinyl}-1,2-benzisothiazole], the ED50 in assay [2] was found to be 7 mg/kg; in assay [1], 0.2 mg/kg.
In turn, `Fc1ccc(C(CCCN2CCC(c3nsc4ccccc34)CC2)c2ccc(F)cc2)cc1` [3-{1-[4,4-bis-(4-Fluorophenyl)-1-butyl]-4-piperidinyl}-1,2-benzisothiazole] displayed an ED50 in assay [2] of 3.3 mg/kg.
In the case of `O=C(CCCN1CCC(O)(c2ccc(Cl)cc2)CC1)c1ccc(F)cc1` [haloperidol, reference compound], the ED50 in assay [2] (read-out: ANT[…] (ED50 mg/kg)) was found to be 0.11 mg/kg.
For the compound `c1ccc2c(C3CCNCC3)nsc2c1` [3-(4-piperidinyl)-1,2-benzisothiazole], the ED50 in assay [1] turned out to be 2.1 mg/kg.
For `c1ccc2c(C3CCN(CC4CC4)CC3)nsc2c1` [3-{1-(cyclopropylmethyl)-4-piperidinyl}-1,2-benzisothiazole], the figures for the ED50 in assay [2] and in assay [1] were 5.8 mg/kg and 0.07 mg/kg, respectively.
`Fc1ccc2c(CCCN3CCC(c4nsc5ccccc45)CC3)noc2c1` [3-[1-(6-Fluoro-1,2-benzisoxazole-3-propyl)-4-piperidinyl]-1,2-benzisothiazole]: the ED50 in assay [2] amounted to 0.17 mg/kg; in assay [1] it was 0.3 mg/kg.
As to `Cc1[nH]c2ccccc2c1CCCN1CCC(c2nsc3ccccc23)CC1` [3-{3-[4-(1,2-benzisothiazol-3-yl)piperidinyl]propyl}-2-methyl indole], the ED50 in assay [2] stood at 0.17 mg/kg.
In turn, `CCC(=O)O[C@](Cc1ccccc1)(c1ccccc1)[C@H](C)CN(C)C` [propoxyphene, reference compound] had an ED50 in assay [1] of 3.9 mg/kg.
Regarding `O=c1[nH]c2ccccc2n1CCCN1CCC(c2nsc3ccccc23)CC1` [3-[1-(1,3-Dihydro-2-oxo-2H-benzimidazol-1-ylpropyl)-4-piperidinyl]-1,2-benzisothiazole], in assay [2], the ED50 came out at 0.32 mg/kg.
For `CC(C)=CCN1CCC2(C)c3cc(O)ccc3CC1C2C` (centres unmarked) [pentazocine, reference compound], the ED50 in assay [1] was found to be 1.3 mg/kg.
